Reference: ChEMBL document CHEMBL2157907, “Optimization of anti-Trypanosoma cruzi oxadiazoles leads to identification of compounds with efficacy in infected mice” (Bioorg Med Chem, 2012)
pIC50: −log10 of the molar value. Activity calls are given as the source filed them. The rule behind the calls is not given here.

Legend:
[1] = target: Cruzipain (Trypanosoma cruzi) (UniProt P25779); assay: Inhibition of Trypanosoma cruzi cruzain using Z-Phe-Arg-aminomethylcoumarin as substrate at 100 uM after 10 mins
Cruzipain (Trypanosoma cruzi), sequence (P25779 123-467 limits assumed): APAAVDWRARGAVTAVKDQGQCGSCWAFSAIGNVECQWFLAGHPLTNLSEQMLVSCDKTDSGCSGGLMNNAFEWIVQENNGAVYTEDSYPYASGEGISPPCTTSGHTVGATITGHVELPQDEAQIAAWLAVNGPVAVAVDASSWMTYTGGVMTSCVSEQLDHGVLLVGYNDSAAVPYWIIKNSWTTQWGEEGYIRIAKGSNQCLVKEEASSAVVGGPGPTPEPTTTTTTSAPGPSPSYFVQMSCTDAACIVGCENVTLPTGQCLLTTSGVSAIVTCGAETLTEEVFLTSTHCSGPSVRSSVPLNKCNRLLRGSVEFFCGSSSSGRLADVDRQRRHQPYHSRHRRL

[2] = Cytotoxicity against BALB/c mouse splenocytes after 24 hrs by [3H]-thymidine incorporation assay; format: cell-based, Splenocyte; settings: read-out: LC50
[3] = target: Cruzipain (Trypanosoma cruzi, UniProt P25779); assay: Inhibition of Trypanosoma cruzi cruzain using Z-Phe-Arg-aminomethylcoumarin as substrate after 10 mins
Cruzipain, sequence (P25779 whole entry): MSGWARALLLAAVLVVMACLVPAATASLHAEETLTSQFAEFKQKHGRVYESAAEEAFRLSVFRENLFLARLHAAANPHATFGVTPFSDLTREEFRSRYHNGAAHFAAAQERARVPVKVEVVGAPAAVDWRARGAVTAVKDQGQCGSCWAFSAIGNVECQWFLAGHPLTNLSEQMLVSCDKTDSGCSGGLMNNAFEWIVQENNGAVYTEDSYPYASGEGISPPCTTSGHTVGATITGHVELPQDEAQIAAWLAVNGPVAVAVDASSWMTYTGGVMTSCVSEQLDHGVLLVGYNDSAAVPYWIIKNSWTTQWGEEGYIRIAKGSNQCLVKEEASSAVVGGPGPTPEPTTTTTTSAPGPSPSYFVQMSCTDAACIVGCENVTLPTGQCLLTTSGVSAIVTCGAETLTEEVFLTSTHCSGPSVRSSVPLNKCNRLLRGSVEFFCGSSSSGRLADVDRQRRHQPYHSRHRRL

[4] = system: Trypanosoma cruzi; assay: Antitrypanosomal activity against trypomastigotes of Trypanosoma cruzi Y infected in BALB/c mouse peritoneal exudate macrophages assessed as reduction of parasite level at 10 ug/ml after 4 days; format: functional, organism-based
[5] = system: Trypanosoma cruzi; assay: Antitrypanosomal activity against trypomastigotes of Trypanosoma cruzi Y infected in rhesus monkey LLC-MK2 cells assessed parasite viability after 24 hrs; format: functional, organism-based; settings: LLC-MK2, 24 h
[6] = system: Trypanosoma cruzi; assay: Antitrypanosomal activity against epimastigotes of Trypanosoma cruzi Y after 5 days; format: functional, organism-based; settings: 120 h

SMILES | inhibition [1] [%] | CC50 at 24 h [2] [µg/mL] | pIC50 [3] | Activity [4] | pIC50 [5] | pIC50 [6]
COc1cc(/C=N/NC(=O)c2nc(-c3ccc(C)cc3)no2)ccc1O | 14 | > 100 |  |  |  | 
O=C(N/N=C/c1ccc2c(c1)OCO2)c1nc(-c2ccc(Br)cc2)no1 | 95 | > 100 | 7.52 | inactive | 4.87 | 4.85
O=C(N/N=C/c1ccc2c(c1)OCO2)c1nc(-c2ccccc2)no1 | 32 | > 100 |  |  |  | 
Cc1ccc(-c2noc(C(=O)N/N=C/c3ccc4c(c3)OCO4)n2)cc1 | 49 | > 100 |  |  |  | 
COc1cc(/C=N/NC(=O)c2nc(-c3ccc(O)cc3)no2)ccc1O | 25 | > 100 |  |  |  | 
CN(C)c1ccc(C(=C2C=CC(=[N+](C)C)C=C2)c2ccc(N(C)C)cc2)cc1 [GENTIAN VIOLET] |  | 0.11 |  |  |  | 
COc1ccc(-c2noc(C(=O)N/N=C/c3ccc(O)c(OC)c3)n2)cc1 | 35 | > 100 |  |  |  | 
COc1cc(/C=N/NC(=O)c2nc(-c3ccc(Br)cc3)no2)ccc1O | 100 | > 100 | 6.70 |  |  | 
COc1cc(/C=N/NC(=O)c2nc(-c3ccccc3)no2)ccc1O | 47 | > 100 |  |  |  | 
